Experimental data as given in ChEMBL document CHEMBL2062477, “Dual-Specificity Phosphatase CDC25A/B Inhibitor Identified from a Focused Library with Nonelectrophilic Core Structure” (ACS Med Chem Lett, 2012).

How the values were obtained:
[1] = biological target: Dual specificity protein phosphatase 3 (Homo sapiens, UniProt P51452); assay: Inhibition of VHR
HL-60 = assay: cells; settings: Homo sapiens, HL-60, 48 h
[2] = biological target: T1, M-phase inducer phosphatase 3 (Homo sapiens, UniProt P30307); assay: Inhibition of CDC25C
T1 sequence (P30307 whole entry): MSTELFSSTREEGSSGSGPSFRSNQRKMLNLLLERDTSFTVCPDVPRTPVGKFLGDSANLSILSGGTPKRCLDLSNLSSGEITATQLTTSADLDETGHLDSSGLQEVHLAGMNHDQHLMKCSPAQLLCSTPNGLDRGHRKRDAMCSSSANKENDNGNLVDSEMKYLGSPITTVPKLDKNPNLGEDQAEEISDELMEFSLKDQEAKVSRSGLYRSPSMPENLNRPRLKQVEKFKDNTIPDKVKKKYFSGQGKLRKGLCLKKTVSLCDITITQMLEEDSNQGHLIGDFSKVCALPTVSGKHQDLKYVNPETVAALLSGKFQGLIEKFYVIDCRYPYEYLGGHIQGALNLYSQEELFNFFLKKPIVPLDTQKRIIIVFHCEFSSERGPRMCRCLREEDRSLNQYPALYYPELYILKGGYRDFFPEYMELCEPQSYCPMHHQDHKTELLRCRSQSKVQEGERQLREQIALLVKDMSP

[3] = biological target: T2, Tyrosine-protein phosphatase non-receptor type 1 (Homo sapiens, UniProt P18031); assay: Inhibition of PTP1B
T2 sequence (P18031 whole entry): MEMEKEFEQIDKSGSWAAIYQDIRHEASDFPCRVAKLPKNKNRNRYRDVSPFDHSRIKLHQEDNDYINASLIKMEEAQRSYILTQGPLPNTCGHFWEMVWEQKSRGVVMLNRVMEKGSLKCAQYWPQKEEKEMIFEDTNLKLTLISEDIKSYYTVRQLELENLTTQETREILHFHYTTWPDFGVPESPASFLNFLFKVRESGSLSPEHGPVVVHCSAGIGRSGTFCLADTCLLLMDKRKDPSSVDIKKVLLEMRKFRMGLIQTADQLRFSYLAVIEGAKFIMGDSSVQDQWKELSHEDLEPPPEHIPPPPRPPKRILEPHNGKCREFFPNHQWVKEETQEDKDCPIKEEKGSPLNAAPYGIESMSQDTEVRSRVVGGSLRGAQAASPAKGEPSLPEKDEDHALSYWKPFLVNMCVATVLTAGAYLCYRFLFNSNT

[4] = biological target: T3, Dual specificity protein phosphatase 6 (Homo sapiens, UniProt Q16828); assay: Inhibition of MKP3
T3 sequence (Q16828 whole entry): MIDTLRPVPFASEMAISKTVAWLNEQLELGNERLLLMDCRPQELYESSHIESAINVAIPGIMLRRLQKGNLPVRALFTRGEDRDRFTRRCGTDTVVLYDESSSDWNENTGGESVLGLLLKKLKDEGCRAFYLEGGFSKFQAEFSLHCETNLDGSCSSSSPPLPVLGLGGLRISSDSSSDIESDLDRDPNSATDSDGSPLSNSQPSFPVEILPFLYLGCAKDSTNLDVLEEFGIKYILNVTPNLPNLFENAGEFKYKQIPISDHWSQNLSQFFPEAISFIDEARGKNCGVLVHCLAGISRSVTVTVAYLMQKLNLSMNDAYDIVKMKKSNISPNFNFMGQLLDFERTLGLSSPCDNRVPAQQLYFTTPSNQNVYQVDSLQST

[5] = biological target: T4, M-phase inducer phosphatase 2 (Homo sapiens, UniProt P30305); assay: Inhibition of CDC25B
T4 sequence (P30305 whole entry): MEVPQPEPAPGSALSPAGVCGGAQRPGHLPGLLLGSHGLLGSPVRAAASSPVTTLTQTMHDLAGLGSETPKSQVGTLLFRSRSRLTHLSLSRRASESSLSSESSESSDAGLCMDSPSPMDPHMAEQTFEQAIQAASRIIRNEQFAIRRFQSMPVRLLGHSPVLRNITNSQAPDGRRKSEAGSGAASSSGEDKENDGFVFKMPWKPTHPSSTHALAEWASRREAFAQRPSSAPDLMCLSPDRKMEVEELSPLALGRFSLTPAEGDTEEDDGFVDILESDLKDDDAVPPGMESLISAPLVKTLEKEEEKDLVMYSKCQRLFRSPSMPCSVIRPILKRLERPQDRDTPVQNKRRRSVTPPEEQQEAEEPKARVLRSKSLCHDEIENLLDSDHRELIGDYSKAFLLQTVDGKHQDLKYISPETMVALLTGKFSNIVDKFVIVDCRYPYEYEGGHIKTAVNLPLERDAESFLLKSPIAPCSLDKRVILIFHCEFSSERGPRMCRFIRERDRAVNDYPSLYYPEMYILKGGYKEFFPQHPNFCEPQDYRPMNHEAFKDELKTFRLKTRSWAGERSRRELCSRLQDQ

[6] = biological target: T5, Dual specificity protein phosphatase 1 (Homo sapiens, UniProt P28562); assay: Inhibition of MKP1
T5 sequence (P28562 whole entry): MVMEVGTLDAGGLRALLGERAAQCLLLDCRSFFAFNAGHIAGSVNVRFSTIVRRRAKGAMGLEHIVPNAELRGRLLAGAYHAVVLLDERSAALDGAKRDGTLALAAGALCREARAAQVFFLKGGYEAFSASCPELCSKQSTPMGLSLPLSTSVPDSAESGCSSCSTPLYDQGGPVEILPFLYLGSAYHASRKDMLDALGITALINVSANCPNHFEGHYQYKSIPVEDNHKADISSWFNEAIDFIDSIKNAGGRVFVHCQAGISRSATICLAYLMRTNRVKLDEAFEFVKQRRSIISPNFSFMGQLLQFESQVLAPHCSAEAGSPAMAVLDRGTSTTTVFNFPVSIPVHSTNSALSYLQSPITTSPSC

[7] = biological target: T6, M-phase inducer phosphatase 1 (Homo sapiens, UniProt P30304); assay: Inhibition of CDC25A
T6 sequence (P30304 whole entry): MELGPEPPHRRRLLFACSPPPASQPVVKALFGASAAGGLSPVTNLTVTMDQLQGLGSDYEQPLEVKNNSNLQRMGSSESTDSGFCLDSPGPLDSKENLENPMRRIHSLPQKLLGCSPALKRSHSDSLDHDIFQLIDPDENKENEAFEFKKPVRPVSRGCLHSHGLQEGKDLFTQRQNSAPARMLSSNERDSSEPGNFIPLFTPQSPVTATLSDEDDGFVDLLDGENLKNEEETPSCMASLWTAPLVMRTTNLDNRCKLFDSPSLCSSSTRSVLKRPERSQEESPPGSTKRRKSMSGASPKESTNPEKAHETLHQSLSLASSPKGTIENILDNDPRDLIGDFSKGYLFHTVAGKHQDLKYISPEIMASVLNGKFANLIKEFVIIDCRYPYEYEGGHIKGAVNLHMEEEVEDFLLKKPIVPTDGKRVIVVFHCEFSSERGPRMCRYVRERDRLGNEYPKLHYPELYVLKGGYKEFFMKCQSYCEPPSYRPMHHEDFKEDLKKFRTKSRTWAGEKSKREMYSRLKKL

Sequence of Dual specificity protein phosphatase 3 (P51452 whole entry): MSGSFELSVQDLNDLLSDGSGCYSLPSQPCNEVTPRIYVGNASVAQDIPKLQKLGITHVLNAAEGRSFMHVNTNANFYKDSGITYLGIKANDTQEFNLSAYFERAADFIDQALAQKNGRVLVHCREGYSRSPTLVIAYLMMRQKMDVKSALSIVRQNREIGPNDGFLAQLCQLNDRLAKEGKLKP

SMILES: CCCCCCCCCCCCCCCC(NCc1cccc(Cl)c1)=C1C(=O)OC(CO)C1=O (mixture of isomers)
- IC50 [1]: 1.43 µM
- IC50 (HL-60): 12 µM
- IC50 [2]: > 100 µM
- IC50 [3]: > 100 µM
- IC50 [4]: > 100 µM
- IC50 [5]: > 100 µM
- IC50 [6]: > 100 µM
- IC50 [7]: > 100 µM

SMILES: CCCCCCCCCCCCCCCC(NCc1cccc(F)c1)=C1C(=O)OC(CO)C1=O (mixture of isomers)
- IC50 [1]: 4.69 µM
- IC50 [2]: 78.2 µM
- IC50 [3]: 83.7 µM
- IC50 [4]: > 100 µM
- IC50 [5]: 5.13 µM
- IC50 [6]: > 100 µM
- IC50 [7]: 6.22 µM

SMILES: CCCCCCCCCCCCCCCC(NCc1ccccc1N(C)C)=C1C(=O)OC(CO)C1=O (mixture of isomers)
- IC50 [1]: 5.19 µM
- IC50 [2]: > 100 µM
- IC50 [3]: > 100 µM
- IC50 [4]: > 100 µM
- IC50 [5]: 5.75 µM
- IC50 [6]: > 100 µM
- IC50 [7]: 8.5 µM

SMILES: CCCCCCCCCCCCCCCC(NCc1ccccc1Cl)=C1C(=O)OC(CO)C1=O (mixture of isomers)
- IC50 [1]: 10.2 µM
- IC50 [2]: > 100 µM
- IC50 [3]: > 100 µM
- IC50 [4]: > 100 µM
- IC50 [5]: 13.5 µM
- IC50 [6]: > 100 µM
- IC50 [7]: 12.3 µM

SMILES: CCCCCCCCCCCCCCCC(NCc1cccc(O)c1)=C1C(=O)OC(CO)C1=O (mixture of isomers)
- IC50 [1]: 11.1 µM
- IC50 [2]: > 100 µM
- IC50 [3]: > 100 µM
- IC50 [4]: > 100 µM
- IC50 [5]: 3.15 µM
- IC50 [6]: > 100 µM
- IC50 [7]: 15.4 µM

SMILES: CCCCCCCCCCCCCCCC(NCc1cccc(N(C)C)c1)=C1C(=O)OC(CO)C1=O (mixture of isomers)
- IC50 [1]: 5.13 µM
- IC50 [2]: > 100 µM
- IC50 [3]: > 100 µM
- IC50 [4]: > 100 µM
- IC50 [5]: 6.55 µM
- IC50 [6]: > 100 µM
- IC50 [7]: 11.4 µM

SMILES: CCCCCCCCCCCCCCCC(NCc1ccc(N(C)C)cc1)=C1C(=O)OC(CO)C1=O (mixture of isomers)
- IC50 [1]: 12 µM
- IC50 (HL-60): 10.9 µM
- IC50 [2]: > 100 µM
- IC50 [3]: > 100 µM
- IC50 [4]: > 100 µM
- IC50 [5]: 6.23 µM
- IC50 [6]: > 100 µM
- IC50 [7]: 8.67 µM

SMILES: CCCCCCCCCCCCCCCC(NCc1ccc(Cl)cc1)=C1C(=O)OC(CO)C1=O (mixture of isomers)
- IC50 [1]: 3.63 µM
- IC50 [2]: > 100 µM
- IC50 [3]: > 100 µM
- IC50 [4]: > 100 µM
- IC50 [5]: 5.52 µM
- IC50 [6]: > 100 µM
- IC50 [7]: 6.25 µM

SMILES: CCCCCCCCCCCCCCCC(NCc1ccc(F)cc1)=C1C(=O)OC(CO)C1=O (mixture of isomers)
- IC50 [2]: > 100 µM
- IC50 [3]: > 100 µM
- IC50 [4]: > 100 µM
- IC50 [5]: 13.1 µM
- IC50 [6]: > 100 µM
- IC50 [7]: 10.7 µM

SMILES: CCCCCCCCCCCCCCCC(NCc1ccc(C)cc1)=C1C(=O)OC(CO)C1=O (mixture of isomers)
- IC50 [1]: 2.68 µM
- IC50 (HL-60): 19.1 µM
- IC50 [2]: 56.7 µM
- IC50 [3]: > 100 µM
- IC50 [4]: > 100 µM
- IC50 [5]: 3.33 µM
- IC50 [6]: > 100 µM
- IC50 [7]: 7.35 µM

SMILES: CCCCCCCCCCCCCCCC(NCc1ccccc1OC)=C1C(=O)OC(CO)C1=O (mixture of isomers)
- IC50 [1]: 6.6 µM
- IC50 [2]: > 100 µM
- IC50 [3]: > 100 µM
- IC50 [4]: > 100 µM
- IC50 [5]: 12.1 µM
- IC50 [6]: > 100 µM
- IC50 [7]: 19 µM

SMILES: CCCCCCCCCCCCCCCC(NCc1ccccc1F)=C1C(=O)OC(CO)C1=O (mixture of isomers)
- IC50 [1]: 8.93 µM
- IC50 [2]: 47.1 µM
- IC50 [3]: > 100 µM
- IC50 [4]: > 100 µM
- IC50 [6]: > 100 µM
- IC50 [7]: 12.6 µM

SMILES: CCCCCCCCCCCCCCCC(NCc1cccc(OC)c1)=C1C(=O)OC(CO)C1=O (mixture of isomers)
- IC50 [1]: 5.53 µM
- IC50 [2]: > 100 µM
- IC50 [3]: > 100 µM
- IC50 [4]: > 100 µM
- IC50 [5]: 8.31 µM
- IC50 [6]: > 100 µM
- IC50 [7]: 10.2 µM

SMILES: CCCCCCCCCCCCCCCC(NCc1ccc(O)cc1)=C1C(=O)OC(CO)C1=O (mixture of isomers)
- IC50 [1]: 9.93 µM
- IC50 [2]: 44.1 µM
- IC50 [3]: 68.1 µM
- IC50 [4]: > 100 µM
- IC50 [5]: 4.23 µM
- IC50 [6]: > 100 µM
- IC50 [7]: 6.86 µM

SMILES: CCCCCCCCCCCCCCCC(NCc1ccc(OC)cc1)=C1C(=O)OC(CO)C1=O (mixture of isomers)
- IC50 [1]: 6.77 µM
- IC50 [2]: > 100 µM
- IC50 [3]: > 100 µM
- IC50 [4]: > 100 µM
- IC50 [5]: 23.8 µM
- IC50 [6]: > 100 µM
- IC50 [7]: 11.7 µM

SMILES: CCCCCCCCCCCCCCCC(NCc1ccccc1C)=C1C(=O)OC(CO)C1=O (mixture of isomers)
- IC50 [1]: 8.99 µM
- IC50 [2]: > 100 µM
- IC50 [3]: > 100 µM
- IC50 [4]: > 100 µM
- IC50 [5]: 8.61 µM
- IC50 [6]: > 100 µM
- IC50 [7]: 12.7 µM
